According to US8008329B2 (Dong Wha Pharmaceutical Co., Ltd., priority 2008, dated 2011):
Marks after values point to notes of the source that are not given here.

Tested on: osteoclast differentiation
Test: Osteoclast differentiation in co-culture of mouse bone marrow cells and ST2 cells, TRAP staining (Examples 8-9)
Assay type: cell-based
Details: for % number of osteoclast (vs. solvent control group): 0.1 μM each, day 7; for activity at 0.1 µM: Mus musculus, Osteoclast, 168 h, Individual treatment (compounds), day 7, read-out: % number of osteoclast (vs. solvent control group)
How it was run: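 Bone marrow cells from 6-8-week male ddY mice were co-cultured with ST2 stromal cells under 10^−8 M vitamin D3 and 10^−8 M dexamethasone, with compounds at 0.1 μM final (0.1% DMSO control), refreshed on days 3 and 5. On day 7, TRAP-positive osteoclasts with ≥6 nuclei were counted and expressed as % of solvent control (n=4).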

[1] = Combination treatment (alendronic acid + compounds)
[2] = Combination treatment (risedronic acid + compounds)

Cc1nc(-c2ccc(OCCCCCN(C)c3ccc(C(=N)NO)cc3)cc2)c(C(C)C)s1 [Compound 183, N-hydroxy-4-({5-[4-(5-isopropyl-2-methyl-1,3-thiazol-4-yl)-phenoxy]-pentyl}-methyl-amino)-benzamidine]
% number of osteoclast (vs. solvent control group) [1]: 26 ± 6.1^ab %
% number of osteoclast (vs. solvent control group) [2]: 37 ± 5.3^ac %
activity at 0.1 µM: 66 ± 7.4%

Cc1nc(-c2ccc(OCCCCCOc3ccc(C(=N)NO)cc3)cc2)c(CNCC(C)C)s1 [Compound 299, N-hydroxy-4-(5-{4-[5-(isobutylamino-methyl)-2-methyl-thiazol-4-yl]-phenoxy}-pentyloxy)-benzamidine]
% number of osteoclast (vs. solvent control group) [1]: 14 ± 2.9^ab %
% number of osteoclast (vs. solvent control group) [2]: 11 ± 6.0^ac %
activity at 0.1 µM: 40 ± 6.9%

CCN(CC)CCc1sc(C)nc1-c1ccc(OCCCCCOc2ccc(C(=N)NO)cc2)cc1 [Compound 224, N-hydroxy-4-(5-{4-[5-(2-diethylamino-ethyl)-2-methyl-thiazol-4-yl]-phenoxy}-pentyloxy)-benzamidine]
% number of osteoclast (vs. solvent control group) [1]: 53 ± 2.9^ab %
% number of osteoclast (vs. solvent control group) [2]: 58 ± 10.8%
activity at 0.1 µM: 77 ± 8.4%

Cc1nc(-c2ccc(OCCCCCOc3ccc(C(=N)NO)cc3)cc2)c(CN2CCN(C)CC2)s1 [Compound 294, N-hydroxy-4-(5-{4-[2-methyl-5-(4-methyl-piperazin-1-ylmethyl)-thiazol-4-yl]-phenoxy}-pentyloxy)-benzamidine]
% number of osteoclast (vs. solvent control group) [1]: 13 ± 2.4^ab %
% number of osteoclast (vs. solvent control group) [2]: 9 ± 2.7^ac %
activity at 0.1 µM: 27 ± 4.5%

CN1CCN(CCc2sc(C3CCCCC3)nc2-c2ccc(OCCCCCOc3ccc(C(=N)NO)cc3)cc2)CC1 [Compound 247, N-hydroxy-4-[5-(4-{2-cyclohexyl-5-[2-(4-methyl-piperazin-1-yl)-ethyl]-thiazol-4-yl}-phenoxy)-pentyloxy]-benzamidine]
% number of osteoclast (vs. solvent control group) [1]: 39 ± 3.7^ab %
% number of osteoclast (vs. solvent control group) [2]: 17 ± 4.5^ac %
activity at 0.1 µM: 63 ± 4.2%

Cc1nc(-c2ccc(OCCCCCOc3ccc(C(=N)NO)cc3)cc2)c(CCNCCCn2ccnc2)s1 [Compound 218, N-hydroxy-4-[5-(4-{5-[2-(3-imidazol-1-yl-propylamino)-ethyl]-2-methyl-thiazol-4-yl}-phenoxy)-pentyloxy]-benzamidine]
% number of osteoclast (vs. solvent control group) [1]: 39 ± 10.4^b %
% number of osteoclast (vs. solvent control group) [2]: 25 ± 7.5^ac %
activity at 0.1 µM: 56 ± 1.9%

CCc1nc(-c2ccc(OCCCCCOc3ccc(C(=N)NO)cc3)cc2)c(CCN2CCOCC2)s1 [Compound 255, N-hydroxy-4-(5-{4-[2-ethyl-5-(2-morpholin-4-yl-ethyl)-thiazol-4-yl]-phenoxy}-pentyloxy)-benzamidine]
% number of osteoclast (vs. solvent control group) [1]: 18 ± 1.7^ab %
% number of osteoclast (vs. solvent control group) [2]: 12 ± 3.1^ac %
activity at 0.1 µM: 50 ± 3.9%

Cc1nc(-c2ccc(OCCCCC(=O)Nc3ccc(C(=N)NO)cc3)cc2)c(C(C)C)s1 [Compound 182, N-hydroxy-4-{5-[4-(5-isopropyl-2-methyl-1,3-thiazol-4-yl)-phenoxy]-pentanoyl-amino}-benzamidine]
% number of osteoclast (vs. solvent control group) [1]: 45 ± 6.7%
% number of osteoclast (vs. solvent control group) [2]: 41 ± 5.1^c %
activity at 0.1 µM: 82 ± 12%

C=Cc1sc(-c2cccnc2)nc1-c1ccc(OCCCCCOc2ccc(C(=N)NO)cc2)cc1 [Compound 79, N-hydroxy-4-{5-[4-(5-vinyl-2-(pyridin-3-yl)-1,3-thiazol-4-yl)phenoxy]pentyloxy}-benzamidine]
% number of osteoclast (vs. solvent control group) [1]: 22 ± 6.7^ab %
% number of osteoclast (vs. solvent control group) [2]: 16 ± 4.0^ac %
activity at 0.1 µM: 44 ± 7.5%

CCCCc1sc(N(CCC)CCC)nc1-c1ccc(OCCCCCOc2ccc(C(=N)NO)cc2)cc1 [Compound 146, N-hydroxy-4-{5-[4-(5-butyl-2-dipropylamino-1,3-thiazol-4-yl)phenoxy]pentyloxy}-benzamidine]
% number of osteoclast (vs. solvent control group) [1]: 79 ± 7.8%
% number of osteoclast (vs. solvent control group) [2]: 60 ± 13.6^c %
activity at 0.1 µM: 81 ± 8.9%

COCCN(CCOC)c1nc(-c2ccc(OCCCCCOc3ccc(C(=N)NO)cc3)cc2)c(CCN2CCOCC2)s1 [Compound 271, N-hydroxy-4-(5-{4-[2-[bis-(2-methoxy-ethyl)-amino]-5-(2-morpholin-4-yl-ethyl)-thiazol-4-yl]-phenoxy}-pentyloxy)-benzamidine]
% number of osteoclast (vs. solvent control group) [1]: 13 ± 3.7^ab %
% number of osteoclast (vs. solvent control group) [2]: 16 ± 2.9^ac %
activity at 0.1 µM: 30 ± 5.3%

Cc1sc(NC(=N)N)nc1-c1ccc(OCCCCCOc2ccc(C(=N)NO)cc2)cc1 [Compound 59, N-hydroxy-4-{5-[4-(2-guanidino-5-methyl-1,3-thiazol-4-yl)phenoxy]pentyloxy}-benzamidine]
% number of osteoclast (vs. solvent control group) [1]: 34 ± 2.2^ab %
% number of osteoclast (vs. solvent control group) [2]: 33 ± 5.1^ac %
activity at 0.1 µM: 55 ± 6.5%

CCc1sc(N(Cc2cccnc2)Cc2cccnc2)nc1-c1ccc(OCCCCCOc2ccc(C(=N)NO)cc2)cc1 [Compound 137, N-hydroxy-4-[5-(4-{2-[bis-(pyridin-3-ylmethyl)amino]-5-ethyl-1,3-thiazol-4-yl}phenoxy)pentyloxy]-benzamidine]
% number of osteoclast (vs. solvent control group) [1]: 11 ± 4.3^b %
% number of osteoclast (vs. solvent control group) [2]: 7 ± 2.2^ac %
activity at 0.1 µM: 19 ± 2.9%

Cc1nc(-c2ccc(OCC=CCOc3ccc(C(=N)NO)cc3)cc2)c(C(C)C)s1 [Compound 184, N-hydroxy-4-{4-[4-(5-isopropyl-2-methyl-1,3-thiazol-4-yl)-phenoxy]-but-2-enyloxy}-benzamidine]
% number of osteoclast (vs. solvent control group) [1]: 38 ± 3.7^ab %
% number of osteoclast (vs. solvent control group) [2]: 38 ± 6.9^ac %
activity at 0.1 µM: 62 ± 4.6%

CCc1sc(N2CCCCC2)nc1-c1ccc(OCCCCCOc2ccc(C(=N)NO)cc2)cc1 [Compound 166, N-hydroxy-4-{5-[4-(5-ethyl-2-piperidino-1,3-thiazol-4-yl)phenoxy]pentyloxy}-benzamidine]
% number of osteoclast (vs. solvent control group) [1]: 43 ± 9.4^ab %
% number of osteoclast (vs. solvent control group) [2]: 35 ± 3.9^ac %
activity at 0.1 µM: 73 ± 4.4%

N=C(NO)c1ccc(OCCCCCOc2ccc(-c3nc(NC(=O)c4ccncc4)sc3CC3CCCC3)cc2)cc1 [Compound 112, N-hydroxy-4-{5-[4-(5-cyclopentylmethyl-2-(4-pyridylcarbonyl)amino-1,3-thiazol-4-yl)phenoxy]pentyloxy}-benzamidine]
% number of osteoclast (vs. solvent control group) [1]: 35 ± 7.6^ab %
% number of osteoclast (vs. solvent control group) [2]: 31 ± 8.0^ac %
activity at 0.1 µM: 77 ± 9.8%

CCc1sc(N(C)Cc2cccnc2)nc1-c1ccc(OCCCCCOc2ccc(C(=N)NO)cc2)cc1 [Compound 134, N-hydroxy-4-[5-(4-{5-ethyl-2-[methyl-(pyridin-3-ylmethyl)amino]-1,3-thiazol-4-yl}phenoxy)pentyloxy]-benzamidine]
% number of osteoclast (vs. solvent control group) [1]: 39 ± 3.4^ab %
% number of osteoclast (vs. solvent control group) [2]: 24 ± 4.0^ac %
activity at 0.1 µM: 57 ± 4.3%

CCc1sc(N(C)Cc2ccccc2)nc1-c1ccc(OCCCCCOc2ccc(C(=N)NO)cc2)cc1 [Compound 133, N-hydroxy-4-[5-{4-[2-(benzyl-methyl-amino)-5-ethyl-1,3-thiazol-4-yl]phenoxy}pentyloxy]-benzamidine]
% number of osteoclast (vs. solvent control group) [1]: 42 ± 8.3^b %
% number of osteoclast (vs. solvent control group) [2]: 25 ± 5.7^ac %
activity at 0.1 µM: 54 ± 8.3%
